Measurements from patent US8318758B2, “5-fluoro-2-oxopyrimidine-1(2H)-carboxylate derivatives” (Dow AgroSciences, LLC, priority 2009, dated 2012).
Read-outs that look alike come from different tables or passages of the source.

Experiments:
[1] = tested on: Mycosphaerella graminicola; anamorph: Septoria tritici; Bayer code SEPTTR; test: Fungicidal activity: leaf blotch of wheat, one-day protectant and three-day curative tests on wheat plants; type: in vivo, Septoria tritici on wheat plants (variety Yuma); conditions: Zymoseptoria tritici
Experimental: Evaluation of Fungicidal Activity: Leaf Blotch of Wheat (Mycosphaerella graminicola; anamorph: Septoria tritici; Bayer code […]) Wheat plants (variety Yuma) were grown from seed in a greenhouse in 50% mineral soil/50% soil-less Metro mix until the first leaf was fully emerged, with 7-10 seedlings per pot. These plants were inoculated with an aqueous spore suspension of Septoria tritici either prior to or after fungicide treatments. After inoculation the plants were kept in 100% relative humidity (one day in a dark dew chamber followed by two to three days in a lighted dew chamber) to permit spores to germinate and infect the leaf. The plants were then transferred to a greenhouse for disease to develop. The following table presents the activity of typical compounds of the present disclosure when evaluated in these experiments. The effectiveness of the test compounds in controlling disease was determined by assessing the severity of disease on treated plants, then converting the severity to percent control based on the level of disease on untreated, inoculated plants.

[2] = 24 h, One-Day Protectant (1DP), 100 ppm, wheat plants, percent control relative to untreated, inoculated plants, read-out: SEPTTR 100 PPM 1DP (% disease control rating)
[3] = 72 h, Three-Day Curative (3DC), 100 ppm, wheat plants, percent control relative to untreated, inoculated plants, read-out: SEPTTR 100 PPM 3DC (% disease control rating)
[4] = 24 h, read-out: SEPTTR 100 PPM 1DP (% disease control rating)
[5] = 72 h, read-out: SEPTTR 100 PPM 3DC (% disease control rating)

| SMILES | melting point [°C] | pest or weed control at 100 ppm [1, 2] [%] | pest or weed control at 100 ppm [1, 3] [%] | pest or weed control at 100 ppm [1, 4] [%] | pest or weed control at 100 ppm [1, 5] [%] |
| --- | --- | --- | --- | --- | --- |
| Nc1nc(=O)n(C(=O)OCCOCc2ccccc2)cc1F [Compound 12] | 142.8 to 145.1 | 76 to 100 | 76 to 100 | – | – |
| Nc1nc(=O)n(C(=O)Oc2ccc(F)cc2)cc1F [Compound 9] | 156.8 to 158.2 | 76 to 100 | 76 to 100 | – | – |
| Nc1nc(=O)n(C(=O)Oc2ccccc2Cl)cc1F [Compound 8] | 222.5 to 224.6 | 76 to 100 | 76 to 100 | – | – |
| Nc1nc(=O)n(C(=O)Oc2ccc(Cl)cc2)cc1F [Compound 7] | 143.2 to 146.3 | 76 to 100 | 76 to 100 | – | – |
| Nc1nc(=O)n(C(=O)Oc2ccccc2)cc1F [Compound 5, phenyl 4-amino-5-fluoro-2-oxopyrimidine-1(2H)-carboxylate] | 175 to 180 | – | – | 76 to 100 | 76 to 100 |
| CN(C)/C=N/c1nc(=O)n(C(=O)OCC(C)(C)C)cc1F [Compound 1, 4-(dimethylamino-methyleneamino)-5-fluoro-2-oxo-2H-pyrimidine-1-carboxylic acid 2,2-dimethyl-propyl ester] | 162 to 164 | – | – | 76 to 100 | 76 to 100 |
| Nc1nc(=O)n(C(=O)OCC(Cl)(Cl)Cl)cc1F [Compound 16] | 219.3 to 221.1 | 76 to 100 | 76 to 100 | – | – |
| COC(=O)n1cc(F)c(N)nc1=O [Compound 13] | 240 to 243 | 76 to 100 | 76 to 100 | – | – |
| Cc1ccc(OC(=O)n2cc(F)c(N)nc2=O)cc1 [Compound 10] | 235 to 237 | 76 to 100 | 76 to 100 | – | – |
| Nc1nc(=O)n(C(=O)OCc2ccccc2Cl)cc1F [Compound 11] | 145.8 to 146.8 | 76 to 100 | 76 to 100 | – | – |
| Nc1nc(=O)n(C(=O)OCCCCl)cc1F [Compound 14] | 145.1 to 146.3 | 76 to 100 | 76 to 100 | – | – |
| Nc1nc(=O)n(C(=O)OCc2ccccc2)cc1F [Compound 2, benzyl 4-amino-5-fluoro-2-oxopyrimidine-1(2H)-carboxylate] | 212 to 215 | – | – | 76 to 100 | 76 to 100 |
| COCCOC(=O)n1cc(F)c(N)nc1=O [Compound 15] | 94.2 to 96.3 | 76 to 100 | 76 to 100 | – | – |
| C=CCOC(=O)n1cc(F)c(N)nc1=O [Compound 17] | 258 to 260.4 | 76 to 100 | 76 to 100 | – | – |
| CC(C)OC(=O)n1cc(F)c(N)nc1=O [Compound 4, isopropyl 4-amino-5-fluoro-2-oxopyrimidine-1(2H)-carboxylate] | 217 to 219 | – | – | 76 to 100 | 76 to 100 |
| CCOC(=O)n1cc(F)c(N)nc1=O [Compound 3, ethyl 4-amino-5-fluoro-2-oxopyrimidine-1(2H)-carboxylate] | 190 to 193 | – | – | 76 to 100 | 76 to 100 |
| COc1ccc(OC(=O)n2cc(F)c(N)nc2=O)cc1 [Compound 6] | 172.4 to 173.6 | 76 to 100 | 76 to 100 | – | – |

The next lines start with results.

| melting point [°C] | SMILES | pest or weed control at 100 ppm [1, 2] [%] | pest or weed control at 100 ppm [1, 3] [%] | pest or weed control at 100 ppm [1, 4] [%] | pest or weed control at 100 ppm [1, 5] [%] |
| --- | --- | --- | --- | --- | --- |
| 123.2 to 124.3 | CN(C)/C=N/c1nc(=O)n(C(=O)OCc2ccccc2)cc1F [Compound 23] | – | – | – | – |
| 165.8 to 168.1 | Nc1nc(=O)n(C(=O)Oc2ccc3ccccc3c2)cc1F [Compound 18] | 76 to 100 | 76 to 100 | – | – |
| 103.5 to 104.6 | CN(C)/C=N/c1nc(=O)n(C(=O)OC2CCCC2)cc1F [Compound 26] | – | – | – | – |
| 125.9 to 128.2 | CCCCCOC(=O)n1cc(F)c(N)nc1=O [Compound 19] | 76 to 100 | 76 to 100 | – | – |
| 179 to 181.2 | Cc1ccc(OC(=O)n2cc(F)c(/N=C/N(C)C)nc2=O)cc1 [Compound 24] | – | – | – | – |
| 139.8 to 140.6 | Nc1nc(=O)n(C(=O)OC2CCCC2)cc1F [Compound 20] | 76 to 100 | 76 to 100 | – | – |
| 113 to 116 | Nc1nc(=O)n(C(=S)Oc2ccccc2)cc1F [Compound 21, O-phenyl 4-amino-5-fluoro-2-oxopyrimidine-1(2H)-carbothioate] | 76 to 100 | 76 to 100 | – | – |
